Measurements from patent US10626112B2, “Heterocyclic sulfonamide derivative and medicine comprising same” (EA PHARMA CO., LTD., priority 2014, dated 2020).

What follows are compounds tested against human TRPA1 (Homo sapiens (Human), UniProt O75762) (assay: Measurement of TRPA1 antagonist activity (1): intracellular calcium increase). Details: 293T cells transfected with human TRPA1 expression plasmid; allylisothiocyanate 20 μM stimulation; intracellular calcium fluorescence; read-out: hTRPA1 IC50.
Type: cell-based
Procedure, shortened: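 HEK293T cells transiently transfected with full-length human TRPA1, loaded with Calcium4 dye in HBSS/20 mM HEPES pH 7.2. Test compound preincubated 10 min, then allylisothiocyanate added at 20 μM final and fluorescence change followed for 5 min. IC50 from sigmoid fit of percent inhibition relative to agonist and buffer controls.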

Sequence of human TRPA1 (O75762 whole entry): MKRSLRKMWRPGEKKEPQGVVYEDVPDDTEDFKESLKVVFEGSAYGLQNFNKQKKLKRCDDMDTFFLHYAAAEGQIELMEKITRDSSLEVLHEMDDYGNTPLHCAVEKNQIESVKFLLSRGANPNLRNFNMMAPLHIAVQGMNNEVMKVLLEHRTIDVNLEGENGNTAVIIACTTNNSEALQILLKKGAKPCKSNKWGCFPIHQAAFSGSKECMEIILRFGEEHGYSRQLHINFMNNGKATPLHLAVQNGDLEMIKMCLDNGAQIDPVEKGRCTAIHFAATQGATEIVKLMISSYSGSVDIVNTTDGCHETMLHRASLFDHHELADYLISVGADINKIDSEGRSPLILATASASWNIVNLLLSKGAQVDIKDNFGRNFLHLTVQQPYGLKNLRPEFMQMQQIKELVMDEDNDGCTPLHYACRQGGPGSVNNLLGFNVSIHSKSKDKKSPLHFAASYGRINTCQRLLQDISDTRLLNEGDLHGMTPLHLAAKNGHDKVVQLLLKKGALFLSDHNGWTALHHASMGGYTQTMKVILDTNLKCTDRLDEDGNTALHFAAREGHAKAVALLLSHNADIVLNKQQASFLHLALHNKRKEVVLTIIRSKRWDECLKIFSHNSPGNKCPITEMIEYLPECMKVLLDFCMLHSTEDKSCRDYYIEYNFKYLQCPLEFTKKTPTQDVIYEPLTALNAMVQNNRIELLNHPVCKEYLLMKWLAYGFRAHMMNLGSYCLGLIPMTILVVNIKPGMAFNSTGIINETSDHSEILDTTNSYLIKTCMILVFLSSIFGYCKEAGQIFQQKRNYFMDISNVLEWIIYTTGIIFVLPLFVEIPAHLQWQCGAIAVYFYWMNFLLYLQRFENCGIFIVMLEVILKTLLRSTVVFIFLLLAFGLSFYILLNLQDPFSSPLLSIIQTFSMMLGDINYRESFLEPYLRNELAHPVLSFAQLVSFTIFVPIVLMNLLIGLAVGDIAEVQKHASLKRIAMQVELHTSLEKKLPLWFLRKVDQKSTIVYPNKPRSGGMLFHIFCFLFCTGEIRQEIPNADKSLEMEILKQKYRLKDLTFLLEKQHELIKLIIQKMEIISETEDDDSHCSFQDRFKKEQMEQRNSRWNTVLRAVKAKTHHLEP

Row | Compound | IC50 [nM]
1 | O=C(NCc1cc(-c2ccc(OC(F)(F)F)cc2)ncn1)[C@@H]1CCCN1S(=O)(=O)c1cc2cnccc2o1 [Example 306, (2S)-1-furo[3,2-c]pyridin-2-ylsulfonyl-N-[[6-[4-(trifluoromethoxy)phenyl]pyrimidin-4-yl]methyl]pyrrolidine-2-carboxamide] | 2.8
2 | O=C(NCc1ccnc(-c2ccc(OC(F)F)cc2)c1)[C@@H]1CCCN1S(=O)(=O)c1cc2cc(F)ccc2o1 [Example 130, (2S)-N-[[2-[4-(difluoromethoxy)phenyl]-4-pyridyl]methyl]-1-(5-fluorobenzofuran-2-yl)sulfonyl-pyrrolidine-2-carboxamide] | 2
3 | O=C(NCc1ccc(OC(F)(F)F)c(F)c1)[C@@H]1CCCN1S(=O)(=O)c1cc2cc(F)ccc2o1 [Example 69, (2S)-1-(5-fluorobenzofuran-2-yl)sulfonyl-N-[[3-fluoro-4-(trifluoromethoxy)phenyl]methyl]-pyrrolidine-2-carboxamide] | 12
4 | (2S)-1-(5-fluorobenzofuran-2-yl)sulfonyl-N-[[3-[2-methyl-5-(trifluoromethyl)pyrazol-3-yl]phenyl]methyl]pyrrolidine-2-carboxamide [Example 164] | 7.1
5 | O=C(NCc1ccc(F)c(OC(F)(F)F)c1)[C@@H]1CCCN1S(=O)(=O)c1cc2cc(F)ccc2o1 [Example 70, (2S)-1-(5-fluorobenzofuran-2-yl)sulfonyl-N-[[4-fluoro-3-(trifluoromethoxy)phenyl]methyl]-pyrrolidine-2-carboxamide] | 11
6 | C[C@H](NS(=O)(=O)c1cc2cc(F)ccc2o1)C(=O)NCc1cc(-c2cnc(C(F)(F)F)nc2)ccn1 [Example 241, (2S)-2-[(5-fluorobenzofuran-2-yl)sulfonylamino]-N-[[4-[2-(trifluoromethyl)pyrimidin-5-yl]-2-pyridyl]methyl]propanamide] | 75
7 | C[C@H](NS(=O)(=O)c1cc2ccccc2o1)C(=O)NCc1ccnc(-c2ccc(C(F)(F)F)cc2O)c1 [Example 180, (2S)-2-(benzofuran-2-ylsulfonylamino)-N-[[2-[2-hydroxy-4-(trifluoromethyl)phenyl]-4-pyridyl]methyl]propanamide] | 69
8 | C[C@H](NS(=O)(=O)c1cc2cc(F)ccc2o1)C(=O)NCc1cc(-c2ccc(C(F)(F)F)cc2)cnn1 [Example 250, (2S)-2-[(5-fluorobenzofuran-2-yl)sulfonylamino]-N-[[5-[4-(trifluoromethyl)phenyl]-pyridazin-3-yl]methyl]propanamide] | 72
9 | C[C@H](NS(=O)(=O)c1cc2cc(F)ccc2o1)C(=O)NCc1cc(-c2ccc(C(F)(F)F)cn2)cnn1 [Example 251, (2S)-2-[(5-fluorobenzofuran-2-yl)sulfonylamino]-N-[[5-[5-(trifluoromethyl)-2-pyridyl]pyridazin-3-yl]methyl]propanamide] | 330
10 | O=C(NCc1cncc(-c2ccc(C(F)(F)F)nc2)c1)[C@@H]1CCCN1S(=O)(=O)c1cc2cc(F)ccc2o1 [Example 140, (2S)-1-(5-fluorobenzofuran-2-yl)sulfonyl-N-[[5-[6-(trifluoromethyl)-3-pyridyl]-3-pyridyl]methyl]pyrrolidine-2-carboxamide] | 2.2
11 | O=C(NCc1cccc(OCc2ccco2)c1)[C@@H]1CCCN1S(=O)(=O)c1cc2ccccc2o1 [Example 4, (2S)-1-(benzofuran-2-ylsulfonyl)-N-[[3-(2-furylmethoxy)phenyl]methyl]pyrrolidine-2-carboxamide] | 23
12 | O=C(NCc1cccc(Oc2ccc(C(F)(F)F)cc2)c1)[C@@H]1CCCN1S(=O)(=O)c1cc2cc(F)ccc2o1 [Example 53, (2S)-1-(5-fluorobenzofuran-2-yl)sulfonyl-N-[[3-[4-(trifluoromethyl)phenoxy]phenyl]-methyl]pyrrolidine-2-carboxamide] | 2.7
13 | C[C@H](NS(=O)(=O)c1cc2cc(F)ccc2o1)C(=O)NCc1cc(-c2ccc(C(F)(F)F)cn2)ccn1 [Example 240, (2S)-2-[(5-fluorobenzofuran-2-yl)sulfonylamino]-N-[[4-[5-(trifluoromethyl)-2-pyridyl]-2-pyridyl]methyl]propanamide] | 14
14 | O=C(NCc1cccc(-c2ccc(C(F)(F)F)cc2O)n1)[C@@H]1CCCN1S(=O)(=O)c1cc2cc(F)ccc2o1 [Example 147, (2S)-1-(5-fluorobenzofuran-2-yl)sulfonyl-N-[[6-[2-hydroxy-4-(trifluoromethyl)phenyl]-2-pyridyl]methyl]pyrrolidine-2-carboxamide] | 180
15 | O=C(NCc1ccc(Oc2cccc(C(F)(F)F)c2)cc1)[C@@H]1CCCN1S(=O)(=O)c1cc2cc(F)ccc2o1 [Example 51, (2S)-1-(5-fluorobenzofuran-2-yl)sulfonyl-N-[[4-[3-(trifluoromethyl)phenoxy]phenyl]-methyl]pyrrolidine-2-carboxamide] | 19
16 | O=C(NCc1cc(F)cc(OCc2ccccc2)c1)[C@@H]1CCCN1S(=O)(=O)c1cc2cc(F)ccc2o1 [Example 34, (2S)-N-[(3-benzyloxy-5-fluoro-phenyl)methyl]-1-(5-fluorobenzofuran-2-yl)sulfonyl-pyrrolidine-2-carboxamide] | 1.6
17 | O=C(NCc1ccnc(-c2cccc(F)c2)c1)[C@@H]1CCCN1S(=O)(=O)c1cc2ccccc2o1 [Example 113, (2S)-1-(benzofuran-2-ylsulfonyl)-N-[[2-(3-fluorophenyl)-4-pyridyl]methyl]pyrrolidine-2-carboxamide] | 120
18 | O=C(NCc1cc(-c2ccc(C(F)(F)F)cn2)ccn1)[C@@H]1C=CCN1S(=O)(=O)c1cc2cc(F)ccc2o1 [Example 225, (2S)-1-(5-fluorobenzofuran-2-yl)sulfonyl-N-[[4-[5-(trifluoromethyl)-2-pyridyl]-2-pyridyl]methyl]-2,5-dihydropyrrole-2-carboxamide] | 1.3
19 | O=C(NCc1cccc(OCc2ccccc2)c1)[C@@H]1CCCN1S(=O)(=O)c1cc2cc(F)ccc2o1 [Example 43, (2S)-N-[(3-benzyloxyphenyl)methyl]-1-(5-fluorobenzofuran-2-yl)sulfonyl-pyrrolidine-2-carboxamide] | 1.6
20 | O=C(NCc1ccc2occc2c1)[C@@H]1CCCN1S(=O)(=O)c1cc2cc(F)ccc2o1 [Example 74, (2S)-N-(benzofuran-5-ylmethyl)-1-(5-fluorobenzofuran-2-yl)sulfonyl-pyrrolidine-2-carboxamide] | 110
21 | O=C(NCc1ccnc(-c2ccc(OCC(F)(F)F)cc2)c1)[C@@H]1CCCN1S(=O)(=O)c1cc2ccccc2o1 [Example 204, (2S)-1-(benzofuran-2-ylsulfonyl)-N-[[2-[4-(2,2,2-trifluoroethoxy)phenyl]-4-pyridyl]methyl]pyrrolidine-2-carboxamide] | 35
22 | C[C@H](NS(=O)(=O)c1cc2cnccc2o1)C(=O)NCc1ccnc(-c2ccc(C(F)(F)F)cc2O)c1 [Example 303, (2S)-2-(furo[3,2-c]pyridin-2-ylsulfonylamino)-N-[[2-[2-hydroxy-4-(trifluoromethyl)phenyl]-4-pyridyl]methyl]propanamide] | 42
23 | O=C(NCc1cccc(S(=O)(=O)Cc2ccc(C(F)(F)F)cc2)c1)[C@@H]1CCCN1S(=O)(=O)c1cc2ccccc2o1 [Example 324, (2S)-1-(benzofuran-2-ylsulfonyl)-N-[[3-[[4-(trifluoromethyl)phenyl]methylsulfonyl]phenyl]methyl]pyrrolidine-2-carboxamide] | 490
